Measurements published in PubChem BioAssay (NCI).
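Protocol summary: plate cells (96-well), add compound at 5 concentrations, incubate 48 h, interpolate endpoints linearly. GI50 marks 50% less growth. TGI is the concentration that stops growth completely.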

Experiments:
Assay in all cases: inhibition of tumour cell growth, NCI panel, 48 h
RPMI-8226 leukemia = test system: RPMI-8226 leukemia
A549 NSCLC = test system: A549 NSCLC
HCT-116 colon = test system: HCT-116 colon
OVCAR-4 ovarian = test system: OVCAR-4 ovarian
EKVX NSCLC = test system: EKVX NSCLC
SK-MEL-28 melanoma = test system: SK-MEL-28 melanoma
MDA-MB-231 breast = test system: MDA-MB-231 breast
SW-620 colon = test system: SW-620 colon
U251 CNS = test system: U251 CNS
MDA-MB-435 = test system: MDA-MB-435

Compound	GI50 (RPMI-8226 leukemia)	TGI (RPMI-8226 leukemia)	GI50 (A549 NSCLC)	TGI (A549 NSCLC)	GI50 (HCT-116 colon)	TGI (HCT-116 colon)	GI50 (OVCAR-4 ovarian)	TGI (OVCAR-4 ovarian)	GI50 (EKVX NSCLC)	TGI (EKVX NSCLC)	GI50 (SK-MEL-28 melanoma)	TGI (SK-MEL-28 melanoma)	GI50 (MDA-MB-231 breast)	TGI (MDA-MB-231 breast)	GI50 (SW-620 colon)	TGI (SW-620 colon)	GI50 (U251 CNS)	TGI (U251 CNS)	GI50 (MDA-MB-435)	TGI (MDA-MB-435)
Clc1ccccc1-c1nc2ccccc2[nH]1	94000 nM	> 100 µM	> 100 µM	> 100 µM	> 100000 nM	> 100 µM	> 100 µM	> 100 µM	> 100 µM	> 100 µM	> 100 µM	> 100 µM	> 100000 nM	> 100 µM	> 100000 nM	> 100 µM	> 100 µM	> 100 µM	> 100000 nM	> 100 µM
OC(COc1ccc(Cl)cc1Cl)CN1CCCC1 (configuration not stated)	–	> 100 µM	–	> 100 µM	–	> 100 µM	–	> 100 µM	–	> 100 µM	–	> 100 µM	–	> 100 µM	–	> 100 µM	–	> 100 µM	–	> 100 µM
CC(C)(C)c1ccc(C(=O)N/N=C/c2ccc(O)cc2O)cc1	784 nM	20.9 µM	0.594 µM	35 µM	281 nM	11.5 µM	0.238 µM	14.9 µM	0.356 µM	11.8 µM	0.595 µM	13.9 µM	500 nM	5.83 µM	620 nM	13.1 µM	0.483 µM	14.9 µM	806 nM	21.6 µM
CC12C=CC(C)(O1)C1C2c2ccccc2S1(=O)=O (configuration not stated)	44300 nM	> 100 µM	> 100 µM	> 100 µM	47900 nM	> 100 µM	31.6 µM	> 100 µM	92.9 µM	> 100 µM	91.9 µM	> 100 µM	69900 nM	> 100 µM	39900 nM	> 100 µM	> 100 µM	> 100 µM	52100 nM	> 100 µM
COC(=O)[C@]12CC[C@@H](C)[C@H](C)[C@@H]1C1=CC[C@@H]3[C@@]4(C)C(c5ncon5)=C[C@@](C)(CO)C4=CC[C@@]3(C)[C@]1(C)CC2	2320 nM	6.33 µM	4.48 µM	15.5 µM	1680 nM	3.2 µM	3.1 µM	11.8 µM	2.02 µM	4.37 µM	–	–	2200 nM	5.08 µM	1960 nM	3.85 µM	2.02 µM	3.84 µM	1720 nM	3.36 µM
Cn1c2ccccc2c2cc(-c3ccccc3)c3c(c21)C(=O)C=CC3=O	–	8.61 µM	–	> 100 µM	–	41.4 µM	–	41.3 µM	–	> 100 µM	–	40.2 µM	–	47.4 µM	–	33.4 µM	–	39.4 µM	–	51.7 µM
COc1cc2c(cc1OCCCCC(=O)Nc1ccc(-c3nc4ccccc4s3)cc1)N=C[C@@H]1CCCN1C2=O	1450 nM	3.96 µM	3.38 µM	11.2 µM	1860 nM	5.78 µM	2.82 µM	27.9 µM	2.45 µM	5.52 µM	2.23 µM	5.81 µM	2080 nM	10.2 µM	1640 nM	4.03 µM	1.9 µM	6.63 µM	1760 nM	3.45 µM
c1ccc(Cn2cc3c(c2)-c2oncc2CC3)cc1	285 nM	2.38 µM	1.48 µM	97.7 µM	408 nM	> 100 µM	3.26 µM	> 66.9 µM	2.74 µM	> 100 µM	4.27 µM	> 100 µM	1360 nM	51.9 µM	428 nM	> 100 µM	0.552 µM	33 µM	311 nM	> 100 µM
Cc1cc[c-]cc1.Fc1c[c-]c(-c2ccccn2)c(F)c1.N#CCC[PH+](CCC#N)c1ccccc1.[Pt+2]	3300 nM	31.2 µM	3.57 µM	71.8 µM	2250 nM	5.91 µM	2.97 µM	24.5 µM	3.09 µM	22.3 µM	2.18 µM	4.84 µM	2740 nM	7.57 µM	2250 nM	5.35 µM	3.61 µM	15.4 µM	2470 nM	6.75 µM
NC1=CC(=O)C(=O)c2cccnc21	2650 nM	9.91 µM	3.55 µM	15.5 µM	3000 nM	12.5 µM	2.59 µM	8.15 µM	12.5 µM	26.1 µM	2.6 µM	6.38 µM	1930 nM	18.8 µM	8670 nM	24.3 µM	3.92 µM	15.4 µM	1740 nM	3.17 µM
NC(=O)Nc1ccc2ncnc(Nc3ccc(Cl)cc3)c2c1	24300 nM	> 88.8 µM	18.4 µM	> 100 µM	24900 nM	98.2 µM	11.8 µM	> 100 µM	0.369 µM	11.9 µM	30.2 µM	> 100 µM	13700 nM	> 61.4 µM	42800 nM	> 100 µM	25.4 µM	> 100 µM	17800 nM	44.6 µM
COc1cc(/C=C/C(=O)c2c(C)n([O-])c3cc(C)c(C)cc3[n+]2=O)cc(OC)c1OC	–	–	–	–	8080 nM	38.3 µM	16.5 µM	48 µM	18 µM	42.1 µM	19 µM	46.7 µM	17000 nM	44.7 µM	13600 nM	40.7 µM	12 µM	25.8 µM	20400 nM	> 100 µM
C[C@@H]1CN(Cc2ccc(/C=C/c3n[nH]c4ccc5nc(-c6cn[nH]c6C(F)(F)F)c6c(c5c34)CCCC6)cc2)C[C@H](C)O1	–	–	2.56 µM	15 µM	1370 nM	11.3 µM	5.03 µM	24.9 µM	3.7 µM	17.3 µM	7.11 µM	21.2 µM	3240 nM	15.5 µM	2020 nM	10.1 µM	5.45 µM	19.5 µM	6810 nM	21.2 µM
